Read-outs that look alike come from different tables or passages of the source.
Key:
[1] = system: Akt serine-473 phosphorylation; assay: In vitro Phospho-Akt cellular assay (pAkt S473) in HEK293T/17 cells; format: cell-based; conditions: Homo sapiens, 2 hours
Description: Activation of mTOR signaling results in phosphorylation of several downstream targets. In cells, mTOR exists in two different protein complexes. The mTOR Complex-1 (mTORC1) phosphorylates and activates S6 Kinase 1 (S6K1) and S6 Kinase 2 (S6K2) (also known as p70S6K) which then phosphorylate S6 Ribosomal Protein (S6RP) (also known as RPS6)3. S6RP is phosphorylated on serine 235, serine 236, serine 240 and serine 244 by both pS6K1 and pS6K2. The mTOR Complex-2 (mTORC2) phosphorylates AKT on serine 473 which activates the AKT signaling pathway.
The assay measures a test compound's inhibition of S6RP serine-240/244 phosphorylation and inhibition of Akt serine-473 phosphorylation in human embryonic kidney derived HEK293T/17 cells (ATCC CRL-11268).
The HEK293T/17 cell line is maintained in DMEM media (Invitrogen catalogue number 41965-039) supplemented with 10% FCS at 37° C. in a 5% CO2 humidified incubator.
Cells are seeded in 96-well plates at 40,000 cells/well (pS6RP S240/244 assay) or 80,000 cells/well (pAkt S473 assay) in 90 μl growth media (DMEM, 2% FCS). Plates are incubated for 1 hour in a humidified incubator to allow the cells to adhere. Cells are treated with 8 concentrations of test compounds or DMSO alone for controls (final DMSO concentration 0.1%) and incubated at 37° C. for 2 hours. Then 20 μl of 5× concentrated lysis buffer (750 mM NaCl, 100 mM Tris pH7.4, 5 mM ADTA, 5 mM EGTA, 5% Triton X-100) is added, plates are sealed and incubated for 15 minutes at 4° C. with gentle shaking. After cell lysis, 25 μl cell lysate is transferred to a MesoScale plate coated with an antibody to pS6RP Ser240/244 (MesoScale Discovery K150DGD-3) or an antibody to pAkt Ser 473 (MesoScale Discovery K151DGD-3). Plates have been blocked before by incubation with 150 μl MesoScale Discovery Blocking Solution-A for 1 hour at room temperature followed by washing with 150 μl 1× Tris wash buffer per well. After the transfer of the cell lysate to the MSD plate, the pS6RP (or pAkt) protein is captured on the coated antibody by incubation at room temperature for 1 hour with gentle shaking. After the capture step the plate is washed three times with 150 μl of 1× Tris wash buffer per well. Then 25 μl detection antibody conjugated with a Sulfo-Tag is added and incubated for 1 hour at room temperature with gentle shaking. Subsequently the antibody solution is removed and the plate is washed 3 times with 150 μl×Tris wash buffer per well and 150 μl Read buffer is added. The plates are analysed on a MSD 2400 Plate Reader (MesoScale Discovery). Data analysis is performed using nonlinear regression for a sigmoidal dose-response with a variable slope.

mTOR = biological target: T1, mTOR (Homo sapiens, UniProt P42345); assay: mTOR kinobeads assay (competitive binding in Jurkat cell lysate, immunodetection)
T1 construct: endogenous in cells; host or cells: Jurkat, clone E6-1 (ATCC TIB-152) cell lysate
Summary of the method: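 IC50 derived from dose-response curves of mTOR captured on immobilized phenylmorpholin-chromen beads, detected by antibody dot blot with infrared fluorescence.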

[2] = kinobeads assay, Table 4, read-out: Inhibition values (IC50) mTor
[3] = kinobeads assay, Table 6, read-out: Inhibition values (IC50) mTOR
[4] = Further Kinobeads Data, read-out: mTor

| IC50 [1] | IC50 (mTOR; [2]) | IC50 (mTOR; [3]) | IC50 (mTOR; [4]) | Compound |
| --- | --- | --- | --- | --- |
| 43 nM | < 100 nM | < 100 nM | – | C[C@H]1COCCN1c1nc(-c2ccc(NC(=O)NC3CC3)cc2)nc2c1CCN(CC1CC1)C2 [Example 40, (S)-1-cyclopropyl-3-(4-(7-(cyclopropylmethyl)-4-(3-methylmorpholino)-5,6,7,8-tetrahydropyrido[3,4-d]pyrimidin-2-yl)phenyl)urea] |
| 35 nM | < 100 nM | < 100 nM | – | CC(C)N1CCc2c(nc(-c3ccc(NC(=O)NC4CC4)cc3)nc2N2CCOC[C@@H]2C)C1 [Example 43, (S)-1-cyclopropyl-3-(4-(7-isopropyl-4-(3-methylmorpholino)-5,6,7,8-tetrahydropyrido[3,4-d]pyrimidin-2-yl)phenyl)urea] |
| 31 nM | – | – | < 100 nM | CCOC(=O)N1Cc2nc(-c3ccc(NC(=O)NC4CC4)cc3F)nc(N3CCOC[C@H]3C)c2C1 [Example 179, (R)-ethyl 2-(4-(3-cyclopropylureido)-2-fluorophenyl)-4-(3-methylmorpholino)-5H-pyrrolo[3,4-d]pyrimidine-6(7H)-carboxylate] |
| 76 nM | – | – | < 100 nM | CCOC(=O)N1Cc2nc(-c3ccc(NC(=O)NC4CC4)cc3F)nc(N3CCOCC3)c2C1 [Example 156, Ethyl 2-(4-(3-cyclopropylureido)-2-fluorophenyl)-4-morpholino-5H-pyrrolo[3,4-d]pyrimidine-6(7H)-carboxylate] |
| 54 nM | – | – | < 100 nM | CCNC(=O)Nc1ccc(-c2nc3c(c(N4CCOC[C@@H]4C)n2)CCN(C(=O)N(C)C)C3)c(F)c1 [Example 176, (S)-2-(4-(3-ethylureido)-2-fluorophenyl)-N,N-dimethyl-4-(3-methylmorpholino)-5,6-dihydropyrido[3,4-d]pyrimidine-7(8H)-carboxamide] |
| 29 nM | 100 to 1000 nM | 100 to 1000 nM | – | CCNC(=O)Nc1ccc(-c2nc3c(c(N4CCOC[C@@H]4C)n2)CN(C(=O)C(C)(C)C)C3)cc1 [Example 22, (S)-1-ethyl-3-(4-(4-(3-methylmorpholino)-6-pivaloyl-6,7-dihydro-5H-pyrrolo[3,4-d]pyrimidin-2-yl)phenyl)urea] |
| 49 nM | – | – | 100 to 1000 nM | CCNC(=O)Nc1ccc(-c2nc3c(c(N4CCOC[C@@H]4C)n2)CN(C(=O)OC)C3)c(F)c1 [Example 152, (S)-methyl 2-(4-(3-ethylureido)-2-fluorophenyl)-4-(3-methylmorpholino)-5H-pyrrolo[3,4-d]pyrimidine-6-(7H)-carboxylate] |
| 37 nM | – | – | < 100 nM | C[C@H]1COCCN1c1nc(-c2ccc(NC(=O)NC3CC3)cc2F)nc2c1CCN(C(=O)N(C)C)C2 [Example 165, (S)-2-(4-(3-cyclopropylureido)-2-fluorophenyl)-N,N-dimethyl-4-(3-methylmorpholino)-5,6-dihydropyrido[3,4-d]pyrimidine-7(8H)-carboxamide] |
| 101 nM | – | – | < 100 nM | CC(C)N1Cc2nc(-c3ccc(NC(=O)NC4CC4)cc3F)nc(N3CCOC[C@@H]3C)c2C1 [Example 172, (S)-1-cyclopropyl-3-(3-fluoro-4-(6-isopropyl-4-(3-methylmorpholino)-6,7-dihydro-5H-pyrrolo[3,4-d]pyrimidin-2-yl)phenyl)urea] |
| 68 nM | < 100 nM | < 100 nM | – | CCNC(=O)Nc1ccc(-c2nc3c(c(N4CCOC[C@@H]4C)n2)CN(C)C3)cc1 [Example 26, (S)-1-ethyl-3-(4-(6-methyl-4-(3-methylmorpholino)-6,7-dihydro-5H-pyrrolo[3,4-d]pyrimidin-2-yl)phenyl)urea] |
| 107 nM | – | – | 100 to 1000 nM | CCNC(=O)Nc1ccc(-c2nc3c(c(N4CCOCC4)n2)CN(C(=O)OCC)C3)c(F)c1 [Example 151, Ethyl 2-(4-(3-ethylureido)-2-fluorophenyl)-4-morpholino-5H-pyrrolo[3,4-d]pyrimidine-6(7H)-carboxylate] |
| 45 nM | < 100 nM | < 100 nM | – | CCNC(=O)Nc1ccc(-c2nc3c(c(N4CCOC[C@@H]4C)n2)CCN(CC2CC2)C3)cc1 [Example 37, (S)-1-(4-(7-(cyclopropylmethyl)-4-(3-methylmorpholino)-5,6,7,8-tetrahydropyrido[3,4-d]pyrimidin-2-yl)phenyl)-3-ethylurea] |
| 41 nM | – | – | 100 to 1000 nM | COC(=O)N1Cc2nc(-c3ccc(NC(=O)NC4CC4)cc3F)nc(N3CCOC[C@@H]3C)c2C1 [Example 146, (S)-methyl 2-(4-(3-cyclopropylureido)-2-fluorophenyl)-4-(3-methylmorpholino)-5H-pyrrolo[3,4-d]pyrimidine-6(7H)-carboxylate] |
| 16 nM | < 100 nM | < 100 nM | – | CCNC(=O)Nc1ccc(-c2nc3c(c(N4CCOC[C@@H]4C)n2)CCN(CC)C3)cc1 [Example 27, (S)-1-ethyl-3-(4-(7-ethyl-4-(3-methylmorpholino)-5,6,7,8-tetrahydropyrido[3,4-d]pyrimidin-2-yl)phenyl)urea] |
| 14 nM | < 100 nM | < 100 nM | – | CCNC(=O)Nc1ccc(-c2nc3c(c(N4CCOC[C@@H]4C)n2)CCN(C(=O)C(C)C)C3)cc1 [Example 57, (S)-1-ethyl-3-(4-(7-isobutyryl-4-(3-methylmorpholino)-5,6,7,8-tetrahydropyrido[3,4-d]pyrimidin-2-yl)phenyl)urea] |
| 19 nM | < 100 nM | < 100 nM | – | CCNC(=O)Nc1ccc(-c2nc3c(c(N4CCOC[C@@H]4C)n2)CCN(C(=O)C2CC2)C3)cc1 [Example 56, (S)-1-(4-(7-(cyclopropanecarbonyl)-4-(3-methylmorpholino)-5,6,7,8-tetrahydropyrido[3,4-d]pyrimidin-2-yl)phenyl)-3-ethylurea] |
| 160 nM | < 100 nM | < 100 nM | – | CCNC(=O)N1Cc2nc(-c3ccc(NC(=O)NC4CC4)cc3)nc(N3CCOC[C@@H]3C)c2C1 [Example 33, (S)-2-(4-(3-cyclopropylureido)phenyl)-N-ethyl-4-(3-methylmorpholino)-5H-pyrrolo[3,4-d]pyrimidine-6(7H)-carboxamide] |
| – | – | – | < 100 nM | C[C@@H]1COCCN1c1nc(-c2ccc(NC(=O)NC3CC3)cc2F)nc2c1CN(C=O)C2 [Example 190, (R)-1-cyclopropyl-3-(3-fluoro-4-(6-formyl-4-(3-methylmorpholino)-6,7-dihydro-5H-pyrrolo[3,4-d]pyrimidin-2-yl)phenyl)urea] |
| – | 100 to 1000 nM | 100 to 1000 nM | – | C[C@H]1COCCN1c1nc(-c2ccc(NC(=O)NC3CC3)cc2)nc2c1CCN(CC(C)(C)C)C2 [Example 41, (S)-1-cyclopropyl-3-(4-(4-(3-methylmorpholino)-7-neopentyl-5,6,7,8-tetrahydropyrido[3,4-d]pyrimidin-2-yl)phenyl)urea] |
| – | < 100 nM | < 100 nM | – | CC(C)N1Cc2nc(-c3ccc(NC(=O)NC4CC4)cc3)nc(N3CCOC[C@@H]3C)c2C1 [Example 46, (S)-1-cyclopropyl-3-(4-(6-isopropyl-4-(3-methylmorpholino)-6,7-dihydro-5H-pyrrolo[3,4-d]pyrimidin-2-yl)phenyl)urea] |

| Compound | IC50 [1] | IC50 (mTOR; [2]) | IC50 (mTOR; [3]) | IC50 (mTOR; [4]) |
| --- | --- | --- | --- | --- |
| CCOC(=O)N1Cc2nc(-c3ccc(NC(=O)NC4CC4)cc3)nc(N3CCOC[C@@H]3C)c2C1 [Example 34, (S)-ethyl 2-(4-(3-cyclopropylureido)phenyl)-4-(3-methylmorpholino)-5H-pyrrolo[3,4-d]pyrimidine-6(7H)-carboxylate] | 21 nM | < 100 nM | < 100 nM | – |
